These results are taken from PMC8900824, “Interactions between 2′-fluoro-(carbamoylpyridinyl)deschloroepibatidine analogues and acetylcholine-binding protein inform on potent antagonist activity against nicotinic receptors” (Acta Crystallographica. Section D, Structural Biology, 2022).

For one test, the target named is α4β2 nAChR. The following applies: cited from earlier work.
For test [1], the target named is T1, AcAChBP (Aplysia californica, UniProt Q8WSF8, A155V/A60V).
T1 construct: made in house; host or cells: Spodoptera frugiperda (Sf9) cells, baculovirus (Bac-to-Bac)
Briefly: Kd determination by biolayer interferometry (BLI) on immobilized AcAChBP. It is filed as binding. The following applies: 25°C, values with standard errors. As to the method: The K d values of compounds 1–6 were determined using an Octet RED system (Forté-Bio). AcAChBP (0.5 mg ml^−1 in buffer A) was immobilized on Ni^2+–NTA sensors for 600 s, followed by the removal of non-immobilized protein (600 s) and baseline stabilization (120 s). Association and dissociation measurements were obtained at 25°C for six concentrations of each compound (1.7–410 nM) diluted in buffer A plus 1% DMSO. BLI assays were conducted with a baseline measurement in buffer (60 s), an association measurement in the well containing the compound (120 s) and a dissociation measurement in buffer (120 s). Data processing and analysis were performed with Octet RED Data Analysis version 7.1 (Forté-Bio), where the background response of immobilized AcAChBP in buffer was subtracted.

The next test deals with recombinant α4β2 nAChR. The following applies: recombinant receptor, electrophysiology; ref Ondachi et al., 2016; cited from earlier work.
In a further test the test system is homomeric α7 nAChR. The following applies: ref Ondachi et al., 2016, cited from earlier work; for agonist/antagonist effect on α7 nAChR: homomeric α7.
In test [2] the test system is nicotine-induced antinociception. The following applies: in vivo; ref Ondachi et al., 2016; cited from earlier work.
Test [3] deals with T1, AcAChBP. Also noted: method as in Hansen et al., 2005. The following applies: read-out: AcAChBP, Kd; tryptophan fluorescence-quenching assay; ref Hansen et al., 2005; cited from earlier work.
A further test has as its system recombinant α3β4 nAChR. The following applies: recombinant receptor, electrophysiology; ref Ondachi et al., 2016; cited from earlier work.
The target in test [4] is T1, AcAChBP. The following applies: read-out: AcAChBP, Kd; isothermal titration calorimetry; ref Rucktooa et al., 2012; cited from earlier work.
[5] abbreviates: [3H]-epibatidine competition assay, values with standard errors, ref Ondachi et al., 2016.

Molecules are shown by their SMILES. Several values for one entry are separate records, joined by “and”; a condition that tells them apart may be missing. Identical values can stand only once. Like-named read-outs stand apart in the source and are kept apart here.

T1 sequence (Q8WSF8 entry or part of it A60V/A155V): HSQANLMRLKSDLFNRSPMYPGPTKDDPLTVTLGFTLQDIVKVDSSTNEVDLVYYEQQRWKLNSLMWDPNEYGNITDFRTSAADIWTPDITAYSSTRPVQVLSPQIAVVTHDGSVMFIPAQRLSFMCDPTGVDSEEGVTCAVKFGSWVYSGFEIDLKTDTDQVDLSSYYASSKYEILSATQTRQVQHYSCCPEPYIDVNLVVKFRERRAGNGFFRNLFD

Regarding `NC(=O)c1ccc(-c2cc(C3CC4CCC3N4)cnc2F)cc1` (centres unmarked) [Compound 1], on α4β2 nAChR, the Ki (usually the equilibrium dissociation constant of an inhibitor or competing ligand from its target) is 0.12 ± 0.02 nM. In addition, the Kd – broadly, the constant that tells how readily two partners part at equilibrium – at AcAChBP [1] worked out at 9.8 ± 0.03 nM. Moreover, the “agonist activity on α4β2 nAChR” value with recombinant α4β2 nAChR is “mixed partial agonists”. Moreover, the “agonist/antagonist effect on α7 nAChR” value with homomeric α7 nAChR is “agonists”.

On to `NC(=O)c1ccnc(-c2cc(C3CC4CCC3N4)cnc2F)c1` (centres unmarked) [Compound 2], for which, in test [2], the “antagonism of the antinociceptive action of nicotine” value is on record as “a potency approaching that of varenicline”. Further, the Ki on α4β2 nAChR (setting [5]) was 0.28 ± 0.01 nM. For the same compound, at AcAChBP [1], the “AcAChBP, Kd” value was “lowest affinity” and binding was characterised by a dissociation constant (Kd) of 60 ± 0.14 nM. In the test on homomeric α7 nAChR, the “agonist/antagonist effect on α7 nAChR” value was “only an antagonist”.

In the case of `NC(=O)c1ccc(-c2cc(C3CC4CCC3N4)cnc2F)nc1` (centres unmarked) [Compound 3], the Ki at α4β2 nAChR (setting [5]) was 0.94 ± 0.07 nM. The Kd on AcAChBP [1] was found to be 29 ± 0.05 nM. The “agonist activity on α4β2 nAChR” value with recombinant α4β2 nAChR is “mixed partial agonists”. Also, the “agonist/antagonist effect on α7 nAChR” value in the test with homomeric α7 nAChR was “agonists”.

Regarding `NC(=O)c1ccc(-c2cc(C3CC4CCC3N4)cnc2F)cn1` (centres unmarked) [Compound 4], the Ki on α4β2 nAChR (setting [5]) was 0.07 ± 0.002 nM. On AcAChBP [1], this compound had a Kd of 33 ± 0.08 nM. Further, the “subtype selectivity α4β2 over α7” value with homomeric α7 nAChR is “selective for α4β2 over α7”.

On to `NC(=O)c1cncc(-c2cc(C3CC4CCC3N4)cnc2F)c1` (centres unmarked) [Compound 5], for which the Ki at α4β2 nAChR (setting [5]) is 0.28 ± 0.03 nM. Moreover, at AcAChBP [1], the Kd is ~30 nM and 30 nM. Moreover, the “subtype selectivity α4β2 over α7” value in the test with homomeric α7 nAChR is given as “selective for α4β2 over α7”.

`NC(=O)c1cc(-c2cc(C3CC4CCC3N4)cnc2F)ccn1` (centres unmarked) [Compound 6]: on α4β2 nAChR (setting [5]), the Ki was 0.67 ± 0.28 nM. For the same compound, the Kd on AcAChBP [1] turned out to be 9.8 ± 0.01 nM.

Regarding `Clc1ccc([C@H]2C[C@@H]3CC[C@H]2N3)cn1` [Epibatidine, (1R,2R,4S)-2-(6-chloro-3-pyridinyl)-7-azabicyclo[2.2.1]heptane], on AcAChBP [3], the Kd was 14 nM. Also, the “agonist activity on α4β2 nAChR” value in the test on recombinant α4β2 nAChR is “full agonist”. The “agonist activity on α3β4 nAChR” value in the test with recombinant α3β4 nAChR is reported as “full agonist”.

On to `CN1CCC[C@H]1c1cccnc1` [Nicotine], for which the Kd on AcAChBP [4] was 835 nM.

Take `c1cnc2cc3c(cc2n1)[C@@H]1CNC[C@H]3C1` [Varenicline]: the Kd on AcAChBP [4] is 342 nM.
